Consider 4 compounds from patent publication US20260217767A1, “NOVEL A4B7 THIOETHER PEPTIDE DIMER ANTAGONISTS” (Protagonist Therapeutics, Inc., priority 2014, published 2026).

*1 amine or outer side, *2 acyl side, *3 side chain or, on linkers, in order; H or OH if unused. Where a SMILES comes first, the peptide text is derived from it. Bridges are numbered along the chain shown (N, C = ends). Roman numbers before positions name the chains, in order. [ ]: non-standard residue; d: D form. Bip = N[C@@H](Cc1ccc(-c2ccccc2)cc1)C(=O)O; Diglycolyl = O=C(COCC(=O)[*:2])[*:1]; NMeR = CN[C@@H](CCCNC(=N)N)C(=O)O; Tic = O=C(O)[C@@H]1Cc2ccccc2CN1; X1 = O=C(c1ccccc1C[*:2])[*:1]; Pen = CC(C)(S)[C@H](N)C(=O)O

The target in this test is T1, RPMI 8866 cells (Homo sapiens, UniProt P13612+P26010).
T1 sequence (P13612 34-1032): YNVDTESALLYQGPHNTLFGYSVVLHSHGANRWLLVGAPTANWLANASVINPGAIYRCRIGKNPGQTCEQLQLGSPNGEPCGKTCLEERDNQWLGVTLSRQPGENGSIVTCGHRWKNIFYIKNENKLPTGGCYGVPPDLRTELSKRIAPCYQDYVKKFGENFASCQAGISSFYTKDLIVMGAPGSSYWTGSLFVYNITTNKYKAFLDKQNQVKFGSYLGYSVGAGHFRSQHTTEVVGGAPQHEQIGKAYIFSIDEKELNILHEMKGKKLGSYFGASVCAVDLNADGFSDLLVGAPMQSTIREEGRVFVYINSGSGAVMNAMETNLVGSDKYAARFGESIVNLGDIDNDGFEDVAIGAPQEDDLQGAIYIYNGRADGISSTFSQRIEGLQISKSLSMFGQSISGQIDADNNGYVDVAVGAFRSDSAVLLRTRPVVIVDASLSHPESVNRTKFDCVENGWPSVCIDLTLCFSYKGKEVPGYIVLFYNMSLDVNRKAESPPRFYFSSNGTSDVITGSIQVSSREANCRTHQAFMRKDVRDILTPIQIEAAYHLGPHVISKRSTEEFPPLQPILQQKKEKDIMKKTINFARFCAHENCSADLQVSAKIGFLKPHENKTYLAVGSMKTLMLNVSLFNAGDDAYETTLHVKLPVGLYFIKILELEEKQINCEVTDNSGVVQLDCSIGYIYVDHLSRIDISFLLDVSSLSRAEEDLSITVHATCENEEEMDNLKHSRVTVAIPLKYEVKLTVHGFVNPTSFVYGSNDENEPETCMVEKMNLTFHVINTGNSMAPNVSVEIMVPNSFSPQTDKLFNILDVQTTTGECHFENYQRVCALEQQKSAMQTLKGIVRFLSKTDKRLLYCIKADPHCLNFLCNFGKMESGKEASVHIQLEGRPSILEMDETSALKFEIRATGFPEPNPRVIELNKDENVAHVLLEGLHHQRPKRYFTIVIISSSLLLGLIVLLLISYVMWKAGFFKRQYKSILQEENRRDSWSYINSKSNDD
T1 sequence (P26010 20-798): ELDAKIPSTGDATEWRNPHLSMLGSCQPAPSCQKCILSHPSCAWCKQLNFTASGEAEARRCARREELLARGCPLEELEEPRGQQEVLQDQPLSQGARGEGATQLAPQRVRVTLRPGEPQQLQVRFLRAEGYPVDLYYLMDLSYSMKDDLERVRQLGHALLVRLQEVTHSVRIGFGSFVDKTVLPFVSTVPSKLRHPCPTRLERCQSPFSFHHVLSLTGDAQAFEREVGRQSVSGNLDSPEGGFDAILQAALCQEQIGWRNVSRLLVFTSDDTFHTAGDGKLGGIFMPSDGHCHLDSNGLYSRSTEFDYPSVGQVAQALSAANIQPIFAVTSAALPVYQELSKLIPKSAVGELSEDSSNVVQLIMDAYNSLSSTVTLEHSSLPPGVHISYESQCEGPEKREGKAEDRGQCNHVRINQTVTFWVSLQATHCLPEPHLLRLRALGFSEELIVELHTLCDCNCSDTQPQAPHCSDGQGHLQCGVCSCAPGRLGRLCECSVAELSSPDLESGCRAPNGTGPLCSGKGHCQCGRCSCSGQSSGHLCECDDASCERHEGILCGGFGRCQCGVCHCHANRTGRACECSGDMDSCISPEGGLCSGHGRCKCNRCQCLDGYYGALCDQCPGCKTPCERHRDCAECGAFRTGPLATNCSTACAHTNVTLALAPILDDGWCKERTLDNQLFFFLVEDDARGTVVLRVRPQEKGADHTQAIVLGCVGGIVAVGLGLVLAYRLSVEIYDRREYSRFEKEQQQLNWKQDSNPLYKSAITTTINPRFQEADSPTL
The test can be described thus: α4β7-MAdCAM Cell Adhesion Assay. The following applies: thioether peptide dimers, Table 7; read-out: Cell-Adhesion A4B7. The test is classed as cell-based. Summed up: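 Peptide inhibition of adhesion measured with MAdCAM-1/Fc chimera immobilised at 200 ng/well and MnCl2-activated (1 mM) RPMI 8866 cells, 30-45 min at 37° C. Adherent cells remaining after three washes detected by MTT reduction at 570 nm, corrected for no-cell wells, giving dose response.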

`CC(C)C[C@@H]1NC(=O)[C@H]([C@@H](C)O)NC(=O)[C@H](CC(=O)O)NC(=O)[C@H](CO)NC(=O)[C@H](CCCNC(=N)N)N(C)C(=O)c2ccccc2CSC(C)(C)[C@@H](C(=O)N[C@@H](Cc2ccccc2)C(=O)N[C@H](CCC(=O)O)C(=O)N[C@H](CCCCNC(=O)COCC(=O)NCCCC[C@@H](NC(=O)[C@@H](CCC(=O)O)NC(=O)[C@H](Cc2ccccc2)NC(=O)[C@H]2NC(=O)[C@H](CC(C)C)NC(=O)[C@H]([C@@H](C)O)NC(=O)[C@H](CC(=O)O)NC(=O)[C@H](CO)NC(=O)[C@H](CCCNC(=N)N)N(C)C(=O)c3ccccc3CSC2(C)C)C(=O)O)C(=O)O)NC1=O` [compound 204] (I: [NMeR]SDTL[Pen]F[dE][dK]-OH / II: [NMeR]SDTL[Pen]F[dE][dK]-OH; linker I:9-II:9 via Diglycolyl; linker I:N-I:6, II:N-II:6 via X1): the IC50 was under 25 nM.
On to `CC(C)C[C@@H]1NC(=O)[C@H]([C@@H](C)O)NC(=O)[C@H](CC(=O)O)NC(=O)[C@H](CO)NC(=O)[C@H](CCCNC(=N)N)N(C)C(=O)c2ccccc2CSC[C@@H](C(=O)N2Cc3ccccc3C[C@H]2C(=O)N[C@H](CCC(=O)O)C(=O)N[C@H](CCCCNC(=O)COCC(=O)NCCCC[C@@H](NC(=O)[C@@H](CCC(=O)O)NC(=O)[C@@H]2Cc3ccccc3CN2C(=O)[C@@H]2CSCc3ccccc3C(=O)N(C)[C@@H](CCCNC(=N)N)C(=O)N[C@@H](CO)C(=O)N[C@@H](CC(=O)O)C(=O)N[C@@H]([C@@H](C)O)C(=O)N[C@@H](CC(C)C)C(=O)N2)C(=O)O)C(=O)O)NC1=O` [compound 207] (I: [NMeR]SDTLC[Tic][dE][dK]-OH / II: [NMeR]SDTLC[Tic][dE][dK]-OH; linker I:9-II:9 via Diglycolyl; linker I:N-I:6, II:N-II:6 via X1), for which the IC50 is under 25 nM.
`CC(C)C[C@@H]1NC(=O)[C@H]([C@@H](C)O)NC(=O)[C@H](CC(=O)O)NC(=O)[C@H](CO)NC(=O)[C@H](CCCNC(=N)N)N(C)C(=O)c2ccccc2CSC(C)(C)[C@@H](C(=O)N[C@@H](Cc2ccc(-c3ccccc3)cc2)C(=O)N[C@H](CCC(=O)O)C(=O)N[C@H](CCCCNC(=O)COCC(=O)NCCCC[C@@H](NC(=O)[C@@H](CCC(=O)O)NC(=O)[C@H](Cc2ccc(-c3ccccc3)cc2)NC(=O)[C@H]2NC(=O)[C@H](CC(C)C)NC(=O)[C@H]([C@@H](C)O)NC(=O)[C@H](CC(=O)O)NC(=O)[C@H](CO)NC(=O)[C@H](CCCNC(=N)N)N(C)C(=O)c3ccccc3CSC2(C)C)C(=O)O)C(=O)O)NC1=O` [compound 208] (I: [NMeR]SDTL[Pen][Bip][dE][dK]-OH / II: [NMeR]SDTL[Pen][Bip][dE][dK]-OH; linker I:9-II:9 via Diglycolyl; linker I:N-I:6, II:N-II:6 via X1): the IC50 is under 25 nM.
As for `CC(C)C[C@@H]1NC(=O)[C@H]([C@@H](C)O)NC(=O)[C@H](CC(=O)O)NC(=O)[C@H](CO)NC(=O)[C@H](CCCNC(=N)N)N(C)C(=O)c2ccccc2CSC(C)(C)[C@@H](C(=O)N[C@@H](Cc2c[nH]c3ccccc23)C(=O)N[C@H](CCC(=O)O)C(=O)N[C@H](CCCCNC(=O)COCC(=O)NCCCC[C@@H](NC(=O)[C@@H](CCC(=O)O)NC(=O)[C@H](Cc2c[nH]c3ccccc23)NC(=O)[C@H]2NC(=O)[C@H](CC(C)C)NC(=O)[C@H]([C@@H](C)O)NC(=O)[C@H](CC(=O)O)NC(=O)[C@H](CO)NC(=O)[C@H](CCCNC(=N)N)N(C)C(=O)c3ccccc3CSC2(C)C)C(=O)O)C(=O)O)NC1=O` [compound 209] (I: [NMeR]SDTL[Pen]W[dE][dK]-OH / II: [NMeR]SDTL[Pen]W[dE][dK]-OH; linker I:9-II:9 via Diglycolyl; linker I:N-I:6, II:N-II:6 via X1), the IC50 is under 25 nM.
